Laboratory results reported in patent publication US20250161396A1, “COMPOSITION AND METHOD FOR IMPROVING LIPID METABOLISM FUNCTION OF SUBJECT” (NANJING NUTRABUILDING BIO-TECH CO., LTD., priority 2022, published 2025).

Legend:
Assay type in all cases: in vivo
high fat diet (HFD) mice [1] = assay: Body fat mass of high fat diet mice after 16 weeks of treatment
Procedure: (§1) Mice were divided into five groups: one group was normal diet mice as ND control group; one group of high fat diet (HFD) mice were gavaged with no-active-ingredients water as HFD control group, one group of HFD mice were treated with BAIBA (65 mg/kg/day) alone by gavage as HFD+BAIBA group, one group of HFD mice were treated with GP (5.2 mg/kg/day) alone by gavage as HFD+GP group, and one group of HFD mice were treated with BAIBA (65 mg/kg/day) and GP (5.2 mg/kg/day) combination by gavage as HFD+BAIBA+GP group, all for 16 weeks.
Adipose tissue was collected, fixed with 10% formalin, embedded in paraffin, and dehydrated by graded alcohol. Tissue sections with a thickness of 5 μm were prepared, stained with hematoxylin-eosin (H&E) and observed under an optical microscope with a magnification of 200 times. The body fat mass of each group of mice was measured and recorded.

high fat diet (HFD) mice [2] = assay: Insulin tolerance test (ITT); details: 8th week
Procedure: as §1
(§2) At the 8th week after the initial experiment, oral glucose tolerance test (OGTT) and insulin tolerance test (ITT) were performed on mice. OGTT is as follows: Blood from tail tip of mice was taken to detect blood glucose, and glucose (1.5 g/kg) was given by gavage after overnight fasting, and blood glucose was monitored with a blood glucose meter before administration and 15, 30, 60, 90 and 120 minutes after administration. ITT is as follows: Insulin (0.75 U/kg) was given by intraperitoneal injection on an empty stomach, and blood glucose was monitored with a blood glucose meter before administration and 15, 30, 60, 90 and 120 minutes after administration.
As shown in Table 2 and FIG. 3B, after 15 minutes, the blood glucose level of mice in HFD control group decreased greatly, and the blood glucose level before and after the end of insulin half-life was higher than that in other groups. […] It can be seen that the combination of BAIBA and GP can reduce the insulin resistance of mice, that is, improve the insulin sensitivity.

high fat diet (HFD) mice [3] = assay: Serum leptin level by ELISA kit; details: after 16 weeks of gavage
Procedure: as §1
The serum of mice was centrifuged, and the level of leptin in serum was determined by ELISA kit. According to the concentration value and light absorption value of leptin, the logarithmic value was taken as a standard curve, and the concentration value of leptin was converted according to the standard curve.

high fat diet (HFD) mice [4] = assay: Oral glucose tolerance test (OGTT); details: 8th week
Procedure: as §1, §2

high fat diet (HFD) mice [5] = assay: Serum triglyceride (TG) level by commercial kit; details: after 16 weeks of gavage
Procedure: as §1
(§3) After the mice were killed, the serum was extracted by centrifugation, and the levels of triglyceride (TG) and total cholesterol (TC) in mice were measured by using commercial kits according to the instructions and recorded.

high fat diet (HFD) mice [6] = assay: Serum total cholesterol (TC) level by commercial kit; details: after 16 weeks of gavage
Procedure: as §1, §3

high fat diet (HFD) mice [7] = assay: Body weight of high fat diet mice after 16 weeks of treatment
Procedure: as §1
At the beginning of treatment (baseline), the body weights of the five groups of mice were the same.

[8] = gavage, BAIBA 65 mg/kg/day and/or GP 5.2 mg/kg/day, after 16 weeks
[9] = versus HFD control, after 16 weeks of gavage

## CC(CN)C(=O)O (stereo not drawn) [BAIBA, β-aminoisobutyric acid]
High fat diet (HFD) mice [1]; [8]
  body fat mass: 5.38 g
High fat diet (HFD) mice [1]; [9]
  body fat mass reduced by: 13.78%
High fat diet (HFD) mice [2]; 15 min after insulin 0.75 U/kg intraperitoneal
  blood glucose level in ITT, 15 min: 105.23 mg/dL
High fat diet (HFD) mice [2]; 30 min after insulin 0.75 U/kg intraperitoneal
  blood glucose level in ITT, 30 min: 101.45 mg/dL
High fat diet (HFD) mice [2]; 60 min after insulin 0.75 U/kg intraperitoneal
  blood glucose level in ITT, 60 min: 90.45 mg/dL
High fat diet (HFD) mice [2]; 90 min after insulin 0.75 U/kg intraperitoneal
  blood glucose level in ITT, 90 min: 95.24 mg/dL
High fat diet (HFD) mice [2]; 120 min after insulin 0.75 U/kg intraperitoneal
  blood glucose level in ITT, 120 min: 92.56 mg/dL
High fat diet (HFD) mice [2]; across time points
  blood glucose level in ITT compared with other groups, in words: higher than that in HFD control group at each time point
High fat diet (HFD) mice [2]; empty stomach, before insulin 0.75 U/kg intraperitoneal
  blood glucose level in ITT, pre-dose: 140.4 mg/dL
High fat diet (HFD) mice [3]
  leptin level: 278.12 pg/mL
High fat diet (HFD) mice [4]; 15 min after glucose 1.5 g/kg by gavage
  blood glucose level in OGTT, 15 min: 281.91 mg/dL
High fat diet (HFD) mice [4]; 30 min after glucose 1.5 g/kg by gavage
  blood glucose level in OGTT, 30 min: 352.74 mg/dL
High fat diet (HFD) mice [4]; 60 min after glucose 1.5 g/kg by gavage
  blood glucose level in OGTT, 60 min: 411.98 mg/dL
High fat diet (HFD) mice [4]; 90 min after glucose 1.5 g/kg by gavage
  blood glucose level in OGTT, 90 min: 253.21 mg/dL
High fat diet (HFD) mice [4]; 120 min after glucose 1.5 g/kg by gavage
  blood glucose level in OGTT, 120 min: 192.99 mg/dL
High fat diet (HFD) mice [4]; across time points
  blood glucose level in OGTT compared with other groups, in words: lower than that in HFD control group at each time point
High fat diet (HFD) mice [4]; overnight fasting, before glucose 1.5 g/kg by gavage
  blood glucose level in OGTT, pre-dose: 199.85 mg/dL
High fat diet (HFD) mice [5]
  triglyceride (TG) level: 98.45 mg/dL
High fat diet (HFD) mice [6]
  total cholesterol (TC) level: 220.65 mg/dL
High fat diet (HFD) mice [7]; [8]
  body weight: 47.8 g
High fat diet (HFD) mice [7]; [9]
  body weight reduced by: 2.84%
